From publication PMC4721142, “Randomized controlled studies on the efficacy of antiarthritic agents in inhibiting cartilage degeneration and pain associated with progression of osteoarthritis in the rat” (Arthritis Research & Therapy, 2016)
Where “and” joins values, the source holds several entries; their conditions need not be identical. Equal values may be shown once. Marks after values point to notes of the source that are not given here.

Tests used:
MIA rat model of OA [1] = test: MIA trial 3 histopathology (same doses as dRS test); assay type: in vivo; design: key to Cartilage matrix damage score: 5-point cartilage matrix score; key to Mean of all cartilage loss: approximate % loss, mean of four articular surfaces; Subchondral bone sclerosis: scale not given here; settings: group mean
Text: For MIA trial 3, joints were fixed and toluidine blue–stained sections of the rat knees were comprehensively analyzed from test and control subjects as detailed in Additional file 1. Briefly, a 5-point cartilage matrix score was derived based upon (1) approximate percentage of total loss of articular chondrocytes for each of four articular surfaces, (2) estimated proteoglycan loss (via Safranin O staining), and (3) loss of interstitial matrix. Chondrocyte necrosis and proteolytic degeneration of the femurs were scored on a 5-point scale as in trial 1. A femoral cartilage degeneration score and a three-zone sum of the tibial cartilage degeneration scores (mean of three levels) were also summed to create a total cartilage degeneration score. The mean osteophyte score for each joint was added to this value to create a total joint score with matrix. Other parameters assessed included synovial membrane inflammation and proliferation. Representative images from each group were also collected (see, e.g., Fig. 4 and Additional file 1: Fig. S55, Trial 3). […]
Hawes, APS, Pathologist). Treatments were masked during the assessment. Chondrocyte necrosis and proteolytic degeneration of the femurs were scored on a 5 point scale with 0 = None; 1 = <10%; […]
For the histopathology of the MIA model in Trial 3, completed by Bolder BioPATH (and Dr.
Bendele), a tolouidine blue stained slide containing both halves of the joint was comprehensively analyzed from test and control subjects. Approximate % of total loss of articular chondrocytes, loss of proteoglycan and loss of collagenous matrix were determined for each articular surface (medial tibial plateau (MTP), lateral tibial plateau (LTP), medial femoral condyle (MFC), and lateral femoral condyle (LFC). Chondrocyte loss was quantified by estimating the area of cartilage in which there were no apparently viable chondrocytes and proteoglycan loss was quantified by estimating differences in intensity of toluidine blue matrix staining. Loss of interstitial matrix was an indication of disruption and diminished type II collagen. Based on the mean % loss for the four surfaces in these parameters, a five point matrix score was utilized with the subchondral bone resorption, subchondral bone sclerosis and osteophyte scores to achieve a total joint score. […]
[…] steps, stained with toluidine blue (with a right and left halve per section), and analyzed for cartilage degeneration, proteoglycan loss, collagen damage, and osteophyte formation. Results were averaged across the 3 sections for an overall semi-quantitative score. Regional differences across the tibial plateau were taken into consideration by dividing each section into 3 zones delineated using an ocular micrometer (outside, middle, and inside). Scores were based on the percentage of area affected within the zone.
Cartilage degeneration in the tibia was scored on a five point scale for each zone, collagen damage across the medial tibial plateau was measured by total width for each grade damage. Cartilage degeneration in the tibia was scored none to severe (numerical values 0-5) for each zone (area defined by micrometer) using the following criteria: […]

MIA rat model of OA [2] = test: MIA trial 2 digital Randall-Selitto test (daily tacrolimus 0.3 or 0.6 mg/kg i.p., curcumin 50 mg/kg p.o., fluocinolone 0.01 mg/kg s.c.; weekly clonidine 0.1 mg/kg s.c.); assay type: in vivo
Procedure: The digital Randall-Selitto (dRS) test is said to be a reliable and repeatable measure of neuropathic, bone, and inflammatory pain behavior in several different models, including those of arthritic or joint pain [29, 31, 32]. Baseline and posttreatment values were evaluated using a dRS test device (IITC Life Science, Woodland Hills, CA, USA). Animals were allowed to acclimate to the testing room before all experimentation and for a minimum of 30 minutes before testing. To ensure that their hind limbs were accessible, the animals were gently suspended in a restraint sling. The joint compression threshold was measured once at each time point for the ipsilateral and contralateral knee joints. Pressure was applied gradually over approximately 10 seconds to the medial and lateral aspects of the knee joint. Measurements were taken from the first observed behavior of vocalization, struggle, or withdrawal. A cutoff value of 600 g was used to prevent injury to the animal.
Following isoflurane anesthesia, 50 μl (2 mg) of MIA was injected into the synovial space of the left knee. Animals were randomly assigned to groups, and pain behavior was assessed 7, 14, 21, and 28 days following MIA injection and intervention using WB with the Stoelting incapacitance meter (trial 1) or the dRS test (trials 2 and 3). […] Animals received MIA treatment and then saline control or therapeutic. […] Histopathology was performed at each time point and at study termination. All studies were conducted in accordance with the International Association for the Study of Pain Guidelines and were approved by the Algos Therapeutics, Inc. Institutional Animal Care and Use Committee (IACUC) before initiation. Those running the studies were blind to the treatments. See Additional file 1 for further details.

[3] = day 21, tacrolimus 0.3 mg/kg, other drugs single dose

Compound | Bone resorption percent, LFC (MIA rat model of OA [1]; i.a. weekly) [%] | Bone resorption percent, LTP (MIA rat model of OA [1]; i.a. weekly) [%] | Bone resorption percent, MFC (MIA rat model of OA [1]; i.a. weekly) [%] | Bone resorption percent, MTP (MIA rat model of OA [1]; i.a. weekly) [%] | Bone resorption percent, mean (MIA rat model of OA [1]; i.a. weekly) [%] | Bone resorption score (MIA rat model of OA [1]; i.a. weekly) | Cartilage matrix damage score (MIA rat model of OA [1]; i.a. weekly) | Mean of all cartilage loss (MIA rat model of OA [1]; i.a. weekly) | Osteophyte measure (MIA rat model of OA [1]; i.a. weekly) [µm] | Osteophyte score (MIA rat model of OA [1]; i.a. weekly) | Subchondral bone sclerosis (MIA rat model of OA [1]; i.a. weekly) | Total joint score w/o matrix (MIA rat model of OA [1]; i.a. weekly) | Total joint score with matrix (MIA rat model of OA [1]; i.a. weekly) | dRS, hours after dosing with significant difference (MIA rat model of OA [2]; [3]) | also measured
CC(C)(C)CC(=O)OCC(=O)[C@@]12OC(C)(C)O[C@@H]1C[C@H]1[C@@H]3CCC4=CC(=O)C=C[C@]4(C)[C@@]3(F)[C@@H](O)C[C@@]12C [Triamcinolone hexacetonide] | 35 | 34 | 35 | 32 | 34 | 2.3 | 3.3 ± 0.9 | 61.1 | 453.3 | 2.0 | 0.7 | 5.0 | 8.3 ± 2.6 |  | Cartilage matrix damage score (MIA rat model of OA [1]; i.a. weekly, listed as TH): 3.3; Total joint score with matrix (MIA rat model of OA [1]; i.a. weekly, listed as Trimacinolone Hexacetonide): 8.3
C=CC[C@@H]1/C=C(\C)C[C@H](C)C[C@H](OC)[C@H]2O[C@@](O)(C(=O)C(=O)N3CCCC[C@H]3C(=O)O[C@H](/C(C)=C/[C@@H]3CC[C@@H](O)[C@H](OC)C3)[C@H](C)[C@@H](O)CC1=O)[C@H](C)C[C@@H]2OC [Tacrolimus] | 100 | 100 | 100 | 100 | 100 | 5.0 | 5.0 and 5.0 ± 0.0 | 92.5 | 666.7 | 3.3 | 0.0 | 8.3 | 13.3 and 13.3 ± 1.7 | Pretrt^d | dRS, hours after dosing with significant difference (MIA rat model of OA [2]; day 21, tacrolimus 0.6 mg/kg i.p.): 1 h
COc1cc(/C=C/C(=O)CC(=O)/C=C/c2ccc(O)c(OC)c2)ccc1O [Curcumin, Diferuloylmethane] |  |  |  |  |  |  |  |  |  |  |  |  |  | Pretrt^d | dRS, hours after dosing with significant difference (MIA rat model of OA [2]; day 7, tacrolimus 0.3 mg/kg, other drugs single dose): 1 h
CC1(C)O[C@@H]2C[C@H]3[C@@H]4C[C@H](F)C5=CC(=O)C=C[C@]5(C)[C@@]4(F)[C@@H](O)C[C@]3(C)[C@]2(C(=O)CO)O1 [Fluocinolone, Fluocinolone Acetonide] | 67 | 67 | 72 | 67 | 68 | 3.7 | 3.3 and 3.3 ± 1.2 | 53.7 | 706.7 | 3.3 | 0.0 | 7.0 | 10.3 and 10.3 ± 2.7 |  | dRS, hours after dosing with significant difference (MIA rat model of OA [2]; day 14, tacrolimus 0.3 mg/kg, other drugs single dose): 5^e h
COc1ccc(C=CC(=O)Nc2ccccc2C(=O)O)cc1OC [Tranilast, N-(3′,4′-dimethoxycinnamoyl)anthranilic acid] | 100 | 100 | 100 | 97 | 99 | 5.0 | 5.0 and 5.0 ± 0.0 | 89.7 | 893.3 | 4.3 | 0.0 | 9.3 | 14.3 and 14.3 ± 0.3 |  | 
Clc1cccc(Cl)c1N=C1NCCN1 [Clonidine] | 51 | 61 | 47 | 65 | 56 | 3.0 | 3.0 and 3.0 ± 1.1 | 47.8 | 560.0 | 2.7 | 0.0 | 5.7 | 8.7 and 8.7 ± 3.3 | 3 h | Bone resorption percent, LFC (MIA rat model of OA [1]; clonidine 100 μg/kg s.c.): 72%; Bone resorption percent, LTP (MIA rat model of OA [1]; clonidine 100 μg/kg s.c.): 87%; Bone resorption percent, MFC (MIA rat model of OA [1]; clonidine 100 μg/kg s.c.): 67%; Bone resorption percent, MTP (MIA rat model of OA [1]; clonidine 100 μg/kg s.c.): 83%; Bone resorption percent, mean (MIA rat model of OA [1]; clonidine 100 μg/kg s.c.): 77%; Bone resorption score (MIA rat model of OA [1]; clonidine 100 μg/kg s.c.): 4.3; Cartilage matrix damage score (MIA rat model of OA [1]; clonidine 100 μg/kg s.c.): 3.7 and 3.7 ± 0.9; Mean of all cartilage loss (MIA rat model of OA [1]; clonidine 100 μg/kg s.c.): 64.9; Osteophyte measure (MIA rat model of OA [1]; clonidine 100 μg/kg s.c.): 560.0 µm; Osteophyte score (MIA rat model of OA [1]; clonidine 100 μg/kg s.c.): 2.7; Subchondral bone sclerosis (MIA rat model of OA [1]; clonidine 100 μg/kg s.c.): 0.0; Total joint score w/o matrix (MIA rat model of OA [1]; clonidine 100 μg/kg s.c.): 7.0; Total joint score with matrix (MIA rat model of OA [1]; clonidine 100 μg/kg s.c.): 10.7 and 10.7 ± 2.8
